These results are taken from PubChem BioAssay AID256 (DTP/NCI, 2004).

Values joined by “and” are separate entries in the source; they are usually repeats but may differ in a detail not shown here. Equal entries are not always repeated. Toxic doses and inconclusive results are not listed.

For this assay, the system named is CD2F1 mice, L1210 leukemia ip, survival T/C. Briefly: NCI In Vivo Anticancer Drug Screen. Data for tumor model L1210 Leukemia (intraperitoneal) in CD2F1 (CDF1) mice. The note with it: higher = longer survival. In outline:
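Read-out first: treated-group measurement over vehicle-control measurement, expressed as a ratio. Animals bore a transplanted tumor line and were dosed with compound or vehicle.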

Setting [1] is: endpoint: mean survival time, dose: 100.0 mg/kg/injection, schedule: Q01DX009 (ip), vehicle: saline with Tween-80.
The mark [2] stands for this setting: endpoint: mean survival time, dose: 100.0 mg/kg/injection, schedule: Q04DX003 (ip), vehicle: saline sonified.
[3] abbreviates: endpoint: mean survival time, dose: 100.0 mg/kg/injection, schedule: Q04DX003 (ip), vehicle: saline with Tween-80.
Setting [4] is: endpoint: mean survival time, dose: 200.0 mg/kg/injection, schedule: Q01DX009 (ip), vehicle: saline with Tween-80.
[5] abbreviates: endpoint: mean survival time, dose: 400.0 mg/kg/injection, schedule: Q04DX003 (ip), vehicle: saline sonified.
The mark [6] stands for this setting: endpoint: mean survival time, dose: 200.0 mg/kg/injection, schedule: Q04DX003 (ip), vehicle: saline with Tween-80.
The mark [7] stands for this setting: endpoint: mean survival time, dose: 50.0 mg/kg/injection, schedule: Q01DX009 (ip), vehicle: saline with Tween-80.
[8] abbreviates: endpoint: mean survival time, dose: 75.0 mg/kg/injection, schedule: Q01DX001 (ip), vehicle: saline.
The mark [9] stands for this setting: endpoint: mean survival time, dose: 150.0 mg/kg/injection, schedule: Q01DX001 (ip), vehicle: saline.
Where [10] appears, read: endpoint: mean survival time, dose: 300.0 mg/kg/injection, schedule: Q01DX001 (ip), vehicle: saline.

With `Cc1ccc2c(c1Oc1ccc(S(N)(=O)=O)cc1)C(=O)c1ccccc1C2=O`, the T/C was 103 % of control under setting [1]; 88 % of control under setting [2]; 90 % of control under setting [3]; 101 % of control under setting [4]; 97 % of control (endpoint: mean survival time, dose: 400.0 mg/kg/injection, schedule: Q01DX009 (ip), vehicle: saline with Tween-80); 107 % of control under setting [5].

As to `[NH-]c1ncnc2c1ncn2C1OC(CO)C(O)C1O.[NH-]c1ncnc2c1ncn2C1OC(CO)C(O)C1O.[Pt+2]` (centres undefined), the T/C reads like this: (endpoint: mean survival time, dose: 12.5 mg/kg/injection, schedule: Q04DX003 (ip), vehicle: saline with Tween-80) 92 % of control; (endpoint: mean survival time, dose: 25.0 mg/kg/injection, schedule: Q04DX003 (ip), vehicle: saline with Tween-80) 95 % of control; (endpoint: mean survival time, dose: 50.0 mg/kg/injection, schedule: Q04DX003 (ip), vehicle: saline with Tween-80) 92 % of control; under setting [3], 89 % of control; under setting [6], 86 % of control.

Regarding `CCOc1ccncc1[N+](=O)[O-]`, the T/C was 96 % of control (endpoint: mean survival time, dose: 100.0 mg/kg/injection, schedule: Q01DX009 (ip), vehicle: saline sonified); 95 % of control under setting [2]; 95 % of control (endpoint: mean survival time, dose: 200.0 mg/kg/injection, schedule: Q04DX003 (ip), vehicle: saline sonified); 86 % of control under setting [5].

In the case of `CCCCCCCC(=O)OCC(=O)[C@]1(O)Cc2c(O)c3c(c(O)c2[C@@H](OC2CC(N)C(O)C(C)O2)C1)C(=O)c1c(OC)cccc1C3=O` (some centres undefined), the T/C was 117 % of control (endpoint: mean survival time, dose: 0.5 mg/kg/injection, schedule: Q01DX009 (ip), vehicle: water); 153 % of control (endpoint: mean survival time, dose: 2.0 mg/kg/injection, schedule: Q01DX009 (ip), vehicle: saline sonified); 211 % of control (endpoint: mean survival time, dose: 2.0 mg/kg/injection, schedule: Q01DX009 (ip), vehicle: saline with Tween-80); 151 % of control (endpoint: mean survival time, dose: 2.0 mg/kg/injection, schedule: Q01DX009 (ip), vehicle: water); 164 % of control (endpoint: mean survival time, dose: 3.0 mg/kg/injection, schedule: Q04DX003 (ip), vehicle: saline with Tween-80); 90 % of control (endpoint: mean survival time, dose: 8.0 mg/kg/injection, schedule: Q01DX009 (ip), vehicle: saline with Tween-80). Also, the T/C is 161 % of control (endpoint: mean survival time, dose: 20.0 mg/kg/injection, schedule: Q01DX001 (ip), vehicle: saline with Tween-80) and 104 % of control (endpoint: mean survival time, dose: 20.0 mg/kg/injection, schedule: Q04DX003 (ip), vehicle: saline with Tween-80).

`CCC1(O)C(=O)OCc2c1cc1n(c2=O)Cc2cc3cc(C)ccc3nc2-1` (centres undefined): the T/C (endpoint: median survival time, dose: 10.0 mg/kg/injection, schedule: Q04DX002 (ip), vehicle: saline with Tween-80) was 151 % of control and 207 % of control; the T/C (endpoint: median survival time, dose: 20.0 mg/kg/injection, schedule: Q04DX002 (ip), vehicle: saline with Tween-80) was 151 % of control and 192 % of control; the T/C (endpoint: median survival time, dose: 40.0 mg/kg/injection, schedule: Q04DX002 (ip), vehicle: saline with Tween-80) was 162 % of control and 195 % of control; the T/C (endpoint: median survival time, dose: 80.0 mg/kg/injection, schedule: Q04DX002 (ip), vehicle: saline with Tween-80) was 186 % of control; the T/C (endpoint: median survival time, dose: 160.0 mg/kg/injection, schedule: Q04DX002 (ip), vehicle: saline with Tween-80) was 114 % of control.

`CN(C)CCCN1c2ccc(O)cc2Sc2ccc(Cl)cc21`: the T/C by setting is: (endpoint: mean survival time, dose: 25.0 mg/kg/injection, schedule: Q01DX009 (ip), vehicle: saline with Tween-80) 90 % of control; under setting [7], 96 % of control; under setting [1], 107 % of control.

With `CN(C)c1ccc(N=Nc2nccs2)cc1`, the T/C was 86 % of control (endpoint: mean survival time, dose: 18.7 mg/kg/injection, schedule: Q04DX003 (ip), vehicle: saline with Tween-80); 102 % of control (endpoint: mean survival time, dose: 37.5 mg/kg/injection, schedule: Q04DX003 (ip), vehicle: saline with Tween-80); 96 % of control (endpoint: mean survival time, dose: 75.0 mg/kg/injection, schedule: Q04DX003 (ip), vehicle: saline with Tween-80).

In the case of `CCOC(=O)/N=c1\ccccn1O`, the T/C under setting [8] is 101 % of control, the T/C under setting [9] is 101 % of control and the T/C under setting [10] was 105 % of control.

On to `CC(=O)N(Cc1ccncc1)N=O`, for which the T/C (endpoint: mean survival time, dose: 75.0 mg/kg/injection, schedule: Q01DX001 (ip), vehicle: water) was 110 % of control; the T/C (endpoint: mean survival time, dose: 150.0 mg/kg/injection, schedule: Q01DX001 (ip), vehicle: water) was 114 % of control; the T/C (endpoint: mean survival time, dose: 300.0 mg/kg/injection, schedule: Q01DX001 (ip), vehicle: water) is 116 % of control.

On to `Cc1ccc(NC(=O)CCl)cc1C`, for which the T/C was 100 % of control under setting [1]; 96 % of control under setting [3]; 97 % of control under setting [4]; 95 % of control under setting [6]; 93 % of control (endpoint: mean survival time, dose: 400.0 mg/kg/injection, schedule: Q04DX003 (ip), vehicle: saline with Tween-80).

Regarding `Cc1cc(Br)cc(Br)c1OCC(=O)O`, the T/C runs as follows: (endpoint: mean survival time, dose: 50.0 mg/kg/injection, schedule: Q01DX009 (ip), vehicle: Klucel (hydroxypropylcellulose) (HPC)) 96 % of control; (endpoint: mean survival time, dose: 100.0 mg/kg/injection, schedule: Q01DX009 (ip), vehicle: Klucel (hydroxypropylcellulose) (HPC)) 93 % of control; (endpoint: mean survival time, dose: 200.0 mg/kg/injection, schedule: Q01DX009 (ip), vehicle: Klucel (hydroxypropylcellulose) (HPC)) 96 % of control.

In the case of `CCN(CC)CC[C-]=O.[NH-]CC[NH-].[Pd]`, the T/C was 101 % of control (endpoint: mean survival time, dose: 3.13 mg/kg/injection, schedule: Q04DX003 (ip), vehicle: water); 101 % of control (endpoint: mean survival time, dose: 6.25 mg/kg/injection, schedule: Q04DX003 (ip), vehicle: water); 101 % of control (endpoint: mean survival time, dose: 12.5 mg/kg/injection, schedule: Q04DX003 (ip), vehicle: water); 93 % of control (endpoint: mean survival time, dose: 25.0 mg/kg/injection, schedule: Q04DX003 (ip), vehicle: water); 93 % of control (endpoint: mean survival time, dose: 50.0 mg/kg/injection, schedule: Q04DX003 (ip), vehicle: water).

Take `O=[N+]([O-])c1ccc(N/N=C/c2ccnc3ccccc23)cc1`: the T/C is 89 % of control (endpoint: mean survival time, dose: 100.0 mg/kg/injection, schedule: Q04DX003 (ip), vehicle: Klucel (hydroxypropylcellulose) (HPC)); 91 % of control (endpoint: mean survival time, dose: 200.0 mg/kg/injection, schedule: Q04DX003 (ip), vehicle: Klucel (hydroxypropylcellulose) (HPC)); 97 % of control (endpoint: mean survival time, dose: 400.0 mg/kg/injection, schedule: Q04DX003 (ip), vehicle: Klucel (hydroxypropylcellulose) (HPC)).

As for `CN(C)C=NC1=NN(C)c2ncnc3c2c1cn3C1OC(CO)C(O)C1O` (centres undefined), the T/C by setting is: (endpoint: mean survival time, dose: 12.5 mg/kg/injection, schedule: Q01DX009 (ip), vehicle: water) 101 % of control; (endpoint: mean survival time, dose: 25.0 mg/kg/injection, schedule: Q01DX009 (ip), vehicle: water) 95 % of control; (endpoint: mean survival time, dose: 50.0 mg/kg/injection, schedule: Q01DX009 (ip), vehicle: water) 95 % of control; (endpoint: mean survival time, dose: 100.0 mg/kg/injection, schedule: Q01DX009 (ip), vehicle: other) 108 % of control; (endpoint: mean survival time, dose: 100.0 mg/kg/injection, schedule: Q01DX009 (ip), vehicle: water) 103 % of control; (endpoint: mean survival time, dose: 200.0 mg/kg/injection, schedule: Q01DX009 (ip), vehicle: other) 104 % of control. Also, the T/C by setting is: (endpoint: mean survival time, dose: 200.0 mg/kg/injection, schedule: Q01DX009 (ip), vehicle: water) 110 % of control; (endpoint: mean survival time, dose: 400.0 mg/kg/injection, schedule: Q01DX009 (ip), vehicle: other) 115 % of control.

On to `CC(C)C(=O)OC1(C(C)c2ccccc2)C(=O)NC(=O)NC1=O` (centres undefined), for which the T/C by setting is: (endpoint: mean survival time, dose: 6.25 mg/kg/injection, schedule: Q01DX009 (ip), vehicle: saline with Tween-80) 92 % of control; (endpoint: mean survival time, dose: 12.5 mg/kg/injection, schedule: Q01DX009 (ip), vehicle: saline with Tween-80) 97 % of control; (endpoint: mean survival time, dose: 25.0 mg/kg/injection, schedule: Q04DX002 (ip), vehicle: saline with Tween-80) 91 % of control.

Turning to `CC(C)CCNCC(C)(C)OC(=O)c1ccc([N+](=O)[O-])cc1`, the T/C is 97 % of control under setting [8], 101 % of control under setting [9] and 102 % of control under setting [10].

On to `COc1ccc2c(O)c(Cc3ccccc3)c(=O)oc2c1`, for which the T/C under setting [7] is 112 % of control, the T/C under setting [1] is 103 % of control and the T/C under setting [4] was 103 % of control.

`N=c1c2ncn(C3CCCC3)c2ncn1Cc1ccc([N+](=O)[O-])cc1`: the T/C (endpoint: mean survival time, dose: 75.0 mg/kg/injection, schedule: Q01DX001 (ip), vehicle: other) was 106 % of control.
